Measured values taken from patent US20050154052A1, “Novel crystalline forms of (s)-citalopram oxalate” (Hetero Drugs Limited, priority 2003, published 2005).
Structures can show the parent of a compound that is named as a salt.

Assay: Solubility of (S)-citalopram oxalate in alcohol
Type: physicochemical
Conditions: 5 gm in 35 ml of methanol at 25° C.
Description: According to another aspect of the present invention there is provided a process for preparation of the Form II of (S)-citalopram oxalate. Thus (S)-citalopram oxalate is mixed with an alcohol. (S)-Citalopram oxalate prepared by the process described in, for example, EP 0347066 or the Form I of (S)-citalopram oxalate may be used. The alcohol is either methanol or ethanol or isopropyl alcohol. The solubility of (S)-citalopram oxalate depends on the alcohol used and volume of the alcohol to (S)-citalopram oxalate. For example, 5 gm of (S)-citalopram oxalate is soluble in 35 ml of methanol at 25° C. If (S)-citalopram oxalate is soluble in the conditions of experiment, the Form II of (S)-citalopram oxalate is precipitated from the solution. The techniques such as cooling, partial removal of the solvent, addition of anti-solvent like diisopropyl ether may be used to precipitate the Form II of (S)-citalopram oxalate. If the (S)-citalopram oxalate is insoluble in the alcohol, after mixing (S)-citalopram oxalate and the alcohol the solid is filtered from the contents to obtain Form II of (S)-citalopram oxalate.

CN(C)CCC[C@@]1(c2ccc(F)cc2)OCc2cc(C#N)ccc21 [(S)-citalopram oxalate, 1(S)-[3-(Dimethylamino)propyl]-1-(4-fluorophenyl)-1,3-dihydro-5-isobenzofurancarbonitrile]
solubility in methanol: soluble
